Tests used:
Parameters in all cases: species or system mice (C57BL/6)
[1] = tested on: SIINFEKL specific IFN-γ-producing T cells; assay: Example 1: mice vaccinated subcutaneously in the flank 3 times, splenocytes activated ex vivo with SIINFEKL, IFN-γ ELISpot assay; conditions: for peptide specific T cells induced: without adding poly-L-arginine, 100 μg peptide s.c. flank days 0, 21, 28, spleen one week after third vaccination
Method: Groups of 4 mice (C75BL/6, femal, 8 weeks of age, H-2^b were injected subcutaneoulsy in the flank 3 times (days 0, 21 and 28) as follows (dose 100 μg of peptide, molarity adapted; +/−100 μg poly-L-arginine per mouse):
One week after the third vaccination spleens were removed and the splenocytes were activated ex vivo with peptide SIINFEKL (“245”) to determine IFN-y-producing specific cells (ELISpot assay).

[2] = tested on: SIINFEKL-specific IFN-γ-producing T cells; assay: Example 3: mice vaccinated subcutaneously in the hind footpads, spleen cells restimulated ex vivo, IFN-γ ELISpot assay; conditions: in combination with 100 μg poly-L-arginine; 100 μg peptide s.c. hind footpads; spleen 7 days after vaccination
Method: Groups of 4 mice (C57BL/6, female, 8 weeks of age, H-2^b) were injected subcutaneously into the hind footpads as follows (dose 100 μg of peptide, molarity adapted; +100 μg poly-L-arginine per mouse):
Groups of 4 mice were vaccinated subcutaneously in the hind footpads as indicated. 7 days after the vaccination single cell suspensions of spleens were prepared and cells were restimulated ex vivo to detect IFN-γ-producing cells via ELISpot assay.

[3] = tested on: specific IFN-γ-producing T cells; assay: Example 2: mice vaccinated subcutaneously in the footpad 3 times, lymph node cells and splenocytes activated ex vivo with SIINFEKL, IFN-γ ELISpot assay; conditions: in combination with 100 μg poly-L-arginine; 100 μg peptide s.c. footpad days 0, 14, 28; one week after 3rd vaccination
Method: Groups of 4 mice (C57BL/6, female, 6 weeks of age, II-2^b) were injected subcutaneously in the footpad 3 times (days 0, 14, 28) as follows (dose 100 ug of peptide, molarity adapted; +100 μg poly-L-arginine per mouse):
Groups of 4 mice were vaccinated subcutaneously in the footpad 3 times as indicated. One week after the 3rd vaccination, popliteal lymph nodes and spleens were removed and lymph node cells and splenocytes were activated ex vivo with peptide SIINFEKL (“245”) to determine IFN-y-producing specific cells (ELISpot assay).

Sequence	induction of SIINFEKL-specific IFN-γ-producing T cells [2]	peptide specific T cells induced [1]	also measured
SIINFEKL [ovalbumin derived class I H-2Kb restricted peptide, unmodified wild type, reference compound]			induction of T cells (general statement) ([1]; alone or in combination with an adjuvant like poly-L-arginine): weak inducer of T cells
SIINFEKLFIFI [SIINFEKL with FIFI added at the C-terminus]	high numbers		
FIFISIINFEKL [SIINFEKL with FIFI added at the N-terminus]	high numbers	about 100 per 1 million spleen cells	
EDEDSIINFEKL [SIINFEKL with EDED added at the N-terminus]			induction of specific IFN-γ-producing T cells in the draining (popliteal) lymph node (local response) [3]: high amount; induction of specific IFN-γ-producing T cells in the spleen (systemic response) [3]: high amount
FIFIFISIINFEKL [SIINFEKL with FIFIFI added at the N-terminus]		about 100 per 1 million spleen cells	

From patent publication US20030095979A1, “Pharmaceutical preparations comprising modified peptides” (Cistem Biotechnologies GMBH, priority 2001, published 2003)
